{
  "source": "patent US20170368082A1",
  "about": "“FORMULATIONS OF BRINCIDOFOVIR” (priority 2016, published 2017)",
  "key": {"[1]": {"test": "Preclinical infusion system assembly (rats) compatibility", "assay_type": "physicochemical", "conditions": "0.2 mg/mL (Test #1)", "experimental": "The compatibility of the following brincidofovir formulations with an infusion system assembly for dosing of rats (consisting of a syringe, tether, catheter and syringe pump) was tested\na.) 0.2 mg/mL brincidofovir, 4 mM sodium phosphate, pH˜8.0, approx. 4.90% dextrose; b.) 1.5 mg/mL brincidofovir, 30 mM sodium phosphate, pH-8.0, approx. 4.25% dextrose.\nBoth solutions were prepared via dilution of the developed brincidofovir formulation (10 mg/mL brincidofovir, 200 mM sodium phosphate, pH=8.0) with a 5% dextrose solution. The testing procedure can be summarized as follows: • 1. The appearance, pH, and c(BCV) of the bulk testing solutions (0.2 mg/mL BCV, 4 mM sodium phosphate, pH-8.0, approx. 4.90% dextrose, and 1.5 mg/mL BCV, 30 mM sodium phosphate, pH˜8.0, approx. 4.25% dextrose were assessed pre-contact. • 2. Approximately 5 mL of the testing solution was drawn into a syringe which was then connected to the assembled infusion system (Vascular Access Harness (VAH) tether kit, the VAH port for rat jacket, and catheter). • 3. The infusion system was manually filled with the testing solution. Approximately 200 μL of the testing solution were pushed out of the infusion system and collected as an end-of-line sample (to) for the assessments of appearance and c(BCV). • 4. The syringe of the testing infusion system was mounted onto the syringe pump, and a flow rate was set to a flow of 1.2 mL/h ([…]) for a total dispensing volume of 2.4 mL (120 min). • 5. The entire flow-through was collected over the course of the experiment. At the respective time points (t10min, t105 min), end-of-line samples (approx. 200 μL) were collected for analysis. • 6. The pH of the bulk flow-through was measured at the end of the experiment (t120 min), since the volume of samples acquired from previous time points (200 μL) was too small for a standard pH measurement."}, "[2]": {"conditions": "cited from earlier work"}},
  "note": "Where two headings read alike, the source gives them in different places.",
  "data": [
    {"smiles": "CCCCCCCCCCCCCCCCOCCCOP(=O)(O)CO[C@H](CO)Cn1ccc(N)nc1=O", "note": "[Brincidofovir]", "values": [
      {"measurement": "Appearance", "setting": "[1]; pre contact (bulk solution)", "result": "Clear, colorless"},
      {"measurement": "Measured pH", "setting": "[1]; pre contact (bulk solution)", "result": 8.0},
      {"measurement": "Observed c(BCV)", "setting": "[1]; pre contact (bulk solution)", "result": 0.21, "unit": "mg/mL"},
      {"measurement": "Appearance", "setting": "[1]; t0", "result": "Clear, colorless"},
      {"measurement": "Observed c(BCV)", "setting": "[1]; t0", "result": 0.19, "unit": "mg/mL"},
      {"measurement": "Appearance", "setting": "[1]; t10 min", "result": "Clear, colorless"},
      {"measurement": "Observed c(BCV)", "setting": "[1]; t10 min", "result": 0.16, "unit": "mg/mL"},
      {"measurement": "Appearance", "setting": "[1]; t105 min", "result": "Clear, colorless"},
      {"measurement": "Observed c(BCV)", "setting": "[1]; t105 min", "result": 0.20, "unit": "mg/mL"},
      {"measurement": "Appearance", "setting": "[1]; t120 min (bulk solution)", "result": "Clear, colorless"},
      {"measurement": "Measured pH", "setting": "[1]; t120 min (bulk solution)", "result": 8.0},
      {"measurement": "Instance of diarrhea", "setting": "[2]; single oral dose 100 mg and 200 mg", "result": "about 5%"},
      {"measurement": "Instance of diarrhea", "setting": "[2]; single oral dose 350 mg", "result": "about 20%"}
    ]}
  ]
}
